These results are taken from the RepoRT retention time repository.

The nature of this data set: RP, Thermo Scientific Hypersil GOLD, 1.9 µm, 40 °C, 0.4 mL/min; A: water + 0.1% formic acid, pH 3; B: acetonitrile + 0.1% formic acid, pH 3; gradient (min/%B) 0/0 1/0 11/100 13/100 14/0 16/0. Conditions: stereoisomer not certain.
As to `O=C(O)CC(CC(=O)O)C(=O)O` [Tricarballylic acid], the LC retention time worked out at 1.36 min.
With `Cc1ccc(O)c(O)c1` [4-METHYLCATECHOL], the LC retention time was determined as 6.6 min.
For `O=C([O-])c1cc(=O)[nH]c(=O)[nH]1` [OROTATE] the value was 0.77 min.
Turning to `O=C(O)c1cccc[n+]1[O-]` [Picolinic acid N-oxide], the LC retention time came to 2.04 min.
In the case of `O=c1[nH]c(=O)c2[nH]cnc2[nH]1` [XANTHINE], the LC retention time amounted to 0.82 min.
For `NCC(O)c1ccc(O)c(O)c1` (stereo unspecified) [NORADRENALINE], the LC retention time was 0.65 min.
For `Nc1nc2ncc(CNc3ccc(C(=O)NC(CCC(=O)O)C(=O)O)cc3)nc2c(=O)[nH]1` (stereo unspecified) [FOLATE], the LC retention time worked out at 4.68 min.
In the case of `O=C(O)CCc1ccccc1` [hydrocinnamic acid], the LC retention time was 6.87 min.
`Oc1cc(O)c2c(c1)OC(c1ccc(O)c(O)c1)C(O)C2` (single isomer, unassigned; (+)) [(+)-Catechin hydrate]: the LC retention time worked out at 4.73 min.
`O=C1OC(C(O)CO)C(O)C1O` [L-GULONOLACTONE]: the LC retention time was found to be 0.66 min.
Turning to `NC(Cc1c[nH]c2ccc(O)cc12)C(=O)O` (stereo unspecified) [5-HYDROXYTRYPTOPHAN], the LC retention time was determined as 1.99 min.
As for `COc1cc(C(=O)O)ccc1O` [Vanillic acid], the figure is 4.97 min.
Turning to `NCC(O)c1ccccc1` (stereo unspecified) [PHENYLETHANOLAMINE], the LC retention time came to 2.24 min.
As for `OCCc1c[nH]c2ccccc12` [INDOLE-3-ETHANOL], the figure is 6.28 min; as for `CS(=N)(=O)CCC(N)C(=O)O` (stereo unspecified) [METHIONINE SULFOXIMINE], 0.62 min.
As for `O=CCc1ccccc1` [PHENYLACETALDEHYDE], the LC retention time amounted to 10.3 min.
For `O=C/C=C/c1ccccc1` [Trans-Cinnamaldehyde], the LC retention time came out at 7.27 min.
In the case of `NC(C(=O)O)C(O)C(O)C(O)CO` (stereo unspecified) [GLUCOSAMINATE], the LC retention time is 0.62 min.
With `OCC1OC(OC2(CO)OC(CO)C(O)C2O)C(O)C(O)C1O` (stereo unspecified) [SUCROSE], the LC retention time was 0.69 min.
`Cc1ncc(C[n+]2csc(CCO)c2C)c(N)n1` [THIAMINE]: the LC retention time amounted to 0.61 min.
`Nc1nc2c(c(=O)[nH]1)N=C(CNc1ccc(C(=O)NC(CCC(=O)O)C(=O)O)cc1)CN2` (stereo unspecified) [DIHYDROFOLATE]: the LC retention time stood at 4.54 min.
On to `O=Cc1cccc(O)c1` [3-HYDROXYBENZALDEHYDE], for which the LC retention time came to 5.4 min.
As for `CC(CCCC(C)(C)O)C1CCC2C3CC=C4CC(O)CCC4(C)C3CCC12C` (stereo unspecified) [25-HYDROXYCHOLESTEROL], the figure is 11.9 min; as for `Nc1ncnc2c1ncn2C1OC(COP(=O)(O)OP(=O)(O)OC2OC(CO)C(O)C(O)C2O)C(O)C1O` (stereo unspecified) [ADP-GLUCOSE], 1.27 min; as for `[NH3+]C(C(=O)[O-])C(O)c1ccccc1` (racemic) [L-Threo-3-Phenylserine (DL-3-Phenylserine)], 1.14 min.
Consider `Cn1c(=O)c2[nH]cnc2n(C)c1=O` [THEOPHYLLINE], for which the LC retention time is 4.42 min.
As for `O=C(O)CCCCC1SCC2NC(=O)NC21` (stereo unspecified) [BIOTIN], the figure is 5.15 min; as for `CC(=O)NCCc1c[nH]c2ccc(O)cc12` [N-ACETYLSEROTONIN], 4.86 min.
On to `O=C(O)C(O)c1ccc(O)c(O)c1` (stereo unspecified) [3-4 DIHYDROXYMANDELATE], for which the LC retention time was found to be 0.91 min.
For `NCC(O)c1ccc(O)cc1` (stereo unspecified) [P-OCTOPAMINE] the value was 0.71 min.
In the case of `O=C([O-])c1ccccn1` [PICOLINATE], the LC retention time amounted to 0.82 min.
`C#CC1(O)CCC2C3CCc4cc(O)ccc4C3CCC21C` (racemic): the LC retention time was 8.17 min.
As for `Cn1cncc1CCN` [3-METHYLHISTAMINE], the figure is 0.57 min; as for `Nc1nc2c(ncn2C2OC(COP(=O)(O)OP(=O)(O)OC3OC(CO)C(O)C(O)C3O)C(O)C2O)c(=O)[nH]1` (stereo unspecified) [GUANOSINE DIPHOSPHATE MANNOSE], 4.1 min; as for `O=c1[nH]c(=O)c2ncn(C3OC(COP(=O)(O)O)C(O)C3O)c2[nH]1` (stereo unspecified) [XANTHOSINE-MONOPHOSPHATE], 0.83 min.
For `C[N+](C)(C)CCOP(=O)(O)OP(=O)([O-])OCC1OC(n2ccc(N)nc2=O)C(O)C1O` (stereo unspecified) [CITICOLINE] the value was 0.64 min; for `O=c1c(-c2ccc(O)cc2)coc2cc(OC3OC(CO)C(O)C(O)C3O)ccc12` (stereo unspecified) [daidzin], 5.24 min; for `O=CNCC(=O)O` [N-FORMYLGLYCINE], 0.74 min.
For `CN(C)CC(=O)O` [N-N-dimethylglycine], the LC retention time was found to be 0.63 min.
As for `O=c1[nH]c(=O)c2[nH]c(=O)[nH]c2[nH]1` [URATE], the LC retention time came to 0.81 min.
Regarding `O=C(O)CCCCCCCCCC(=O)O` [undecanedioic acid], the LC retention time was 7.15 min.
In the case of `Nc1ncccc1C(=O)O` [2-Aminopyridine-3-carboxylic acid], the LC retention time was 0.81 min.
`O=c1c(O)c(-c2ccc(O)c(O)c2)oc2cc(O)cc(O)c12` [quercetine dihydrate]: the LC retention time was found to be 6.55 min.
In the case of `OCC1OC(OCC2OC(OC3(CO)OC(CO)C(O)C3O)C(O)C(O)C2O)C(O)C(O)C1O` (stereo unspecified) [RAFFINOSE], the LC retention time is 0.68 min.
On to `CC(O)(CC(=O)O)C(=O)O` (stereo unspecified) [CITRAMALATE], for which the LC retention time is 1.23 min.
On to `Cc1ncc(COP(=O)(O)O)c(C=O)c1O` [PYRIDOXAL-PHOSPHATE], for which the LC retention time was 0.83 min.
Turning to `COC(=O)c1ccc(O)c(OC)c1` [METHYL VANILLATE], the LC retention time was found to be 6.4 min.
Take `OCC1OC(OCC2OC(OCC3OC(OC4(CO)OC(CO)C(O)C4O)C(O)C(O)C3O)C(O)C(O)C2O)C(O)C(O)C1O` (stereo unspecified) [STACHYOSE]: the LC retention time amounted to 0.67 min.
On to `Cn1c(=O)[nH]c2[nH]c(=O)n(C)c2c1=O` [1-7-Dimethyluric acid], for which the LC retention time stood at 4.27 min.
For `CC(=O)C1(O)CCC2C3CCC4=CC(=O)CCC4(C)C3C(O)CC21C` (stereo unspecified) [21-Deoxycortisol], the LC retention time was 7.35 min.
As for `CC(=O)NCC(=O)O` [N-ACETYLGLYCINE], the figure is 0.83 min; as for `CC(=O)NC(Cc1c[nH]c2ccccc12)C(=O)O` (stereo unspecified) [N-ACETYLTRYPTOPHAN], 5.83 min.
Take `Cc1cc2nc[nH]c2cc1C` [5-6 DIMETHYLBENZIMIDAZOLE]: the LC retention time stood at 5.05 min.
Take `NCCOP(=O)(O)O` [O-PHOSPHOETHANOLAMINE]: the LC retention time was determined as 0.61 min.
In the case of `OCC1OC(O)C(O)C1O` (stereo unspecified) [RIBOSE], the LC retention time was 0.66 min.
Regarding `Nc1cc(C(=O)O)ccc1[O-]` [3-AMINO-4-HYDROXYBENZOATE], the LC retention time stood at 0.82 min.
For the molecule `O=c1ccc2cc(O)ccc2[nH]1` [2-6-quinolinediol], the LC retention time was 4.44 min.
As for `O=CCC(O)C(O)CO` (stereo unspecified), the LC retention time worked out at 0.82 min.
On to `CC(C)=CCCC(C)C1CCC2C3CC=C4CC(O)CCC4(C)C3CCC12C` (stereo unspecified) [DESMOSTEROL], for which the LC retention time is 13.9 min.
Take `O=C([O-])C=CC(=O)[O-]` [MALEATE]: the LC retention time came out at 0.88 min.
Take `O=C(O)c1cccc(O)c1O` [2-3-DIHYDROXYBENZOATE]: the LC retention time worked out at 5.01 min.
